According to US8053444B2 (Lek Pharmaceuticals d.d., priority 2007, dated 2011):

Experiments:
[1] = Solubility of sirolimus in water; conditions: volume of 250 ml of gastrointestinal fluid
[2] = Stress stability testing in vials, sirolimus impurities by HPLC; type: physicochemical; set-up: unit not given here; conditions: 7 days, 60° C.
[3] = as above; type: physicochemical; set-up: Total sum of impurities / Max.unknown impurity: unit not given here
Protocol: The origination of a solid solution of sirolimus was checked by X-ray diffraction analysis and Raman microscopy. […] These were exposed then to stress stability testing at 60° C. for 14 days and at 40° C. and 75% relative humidity for one month in vials. The amount of degradation products formed was compared to the samples of commercially available tablets comprising sirolimus.
The HPLC analyses were performed with a Waters system equipped with a Synergi Max-RP, 5 μm, 250×4.6 mm column which was maintained in a column oven at 40° C. The mobile phase consisted of a 40:54:6 (V/V/V) mixture of CF3COOH/NaOH with pH 2.5, acetonitrile and water. The flow rate was 1.4 mL/min, and the detection wavelength was 278 nm.
For the stability studies, two solid solutions were prepared using ethanol-soluble polymers polyvinylpyrrolidone (PVP) or hydroxypropylcellulose (HPC). The chemical stability was monitored for 14 days at 60° C. and 1 month at 40° C. and 75% relative humidity. The samples were stored in vials.

[4] = 1 month, 40° C./75% relative humidity, in vials

| amount of sirolimus dissolved in gastrointestinal fluid [1] | Max.unknown impurity [2] | Total sum of impurities [2] | chemical stability of sirolimus, comparison in words ([3]; stress stability testing, comparison between samples of Table 3) | Max.unknown impurity ([3]; time of testing 0) | Total sum of impurities ([3]; time of testing 0) | Max.unknown impurity [3, 4] | Total sum of impurities [3, 4] | Max.unknown impurity ([3]; 14 days, 60° C., in vials) | Total sum of impurities ([3]; 14 days, 60° C., in vials) | Structure (SMILES) |
| --- | --- | --- | --- | --- | --- | --- | --- | --- | --- | --- |
| about 0.65 mg |  |  |  |  |  |  |  |  |  | CO[C@H]1C[C@@H]2CC[C@@H](C)[C@@](O)(O2)C(=O)C(=O)N2CCCC[C@H]2C(=O)O[C@H]([C@H](C)C[C@@H]2CC[C@@H](O)[C@H](OC)C2)CC(=O)[C@H](C)/C=C(\C)[C@@H](O)[C@@H](OC)C(=O)[C@H](C)C[C@H](C)/C=C/C=C/C=C/1C [Sirolimus, (3S,6R,7E,9R,10R,12R,14S,15E,17E,19E,21S,23S,26R,27R,34aS)-9,10,12,13, -14,21,22,23,24,25,26,27,32,33,34,34a-hexadecahydro-9,27-dihydroxy-3-[(1R)-2-[(1S,3R,4R)-4-hydroxy-3-methoxycyclohexyl]-1-methylethyl]-10,21-dimethox-y-6,8,12,14,20,26-hexamethyl-23,27-epoxy-3H-pyrido[2,1-c][1,4]oxaazacycloh-entriacontine-1,5,11,28,29(4H,6H,31H)-pentone] |
|  | 1.91 | 9.09 | significantly less stable | 0.25 | 3.34 |  |  |  |  | CO[C@H]1C[C@@H]2CC[C@@H](C)[C@@](O)(O2)C(=O)C(=O)N2CCCC[C@H]2C(=O)O[C@H]([C@H](C)C[C@@H]2CC[C@@H](O)[C@H](OC)C2)CC(=O)[C@H](C)/C=C(\C)[C@@H](O)[C@@H](OC)C(=O)[C@H](C)C[C@H](C)/C=C/C=C/C=C/1C [Example 1, sirolimus] |
|  |  |  |  | 0.19 | 0.70 | 0.26 | 0.59 | 0.26 | 0.60 | CO[C@H]1C[C@@H]2CC[C@@H](C)[C@@](O)(O2)C(=O)C(=O)N2CCCC[C@H]2C(=O)O[C@H]([C@H](C)C[C@@H]2CC[C@@H](O)[C@H](OC)C2)CC(=O)[C@H](C)/C=C(\C)[C@@H](O)[C@@H](OC)C(=O)[C@H](C)C[C@H](C)/C=C/C=C/C=C/1C [Substance in a crystal form, sirolimus] |
